Results taken from ChEMBL document CHEMBL1806445, “Limonoids from seeds of Thai Xylocarpus moluccensis” (Bioorg Med Chem Lett, 2011).
Active and inactive are the calls of the source. The calls are words filed in the database; no cut-off is given here.

Key:
RAW264.7 [1] = assay: Inhibition of LPS-induced nitric oxide production in mouse RAW264.7 cells assessed as nitrite level after 24 hrs by Griess method; assay type: functional, cell-based; settings: for IC50: RAW264.7, 24 h
Neutrophil = assay: Inhibition of superoxide anion generation in fMLP-stimulated human neutrophils; assay type: functional, cell-based
RAW264.7 [2] = assay: Cytotoxicity against mouse RAW264.7 cells after 24 hrs by MTT assay; assay type: cell-based; settings: RAW264.7, 24 h
RAW264.7 [3] = assay: Inhibition of LPS-induced nitric oxide production in mouse RAW264.7 cells assessed as nitrite level upto 50 uM after 24 hrs by Griess method; assay type: functional, cell-based

SMILES | inhibition (RAW264.7 [1]) | IC50 (RAW264.7 [1]) [µM] | IC50 (Neutrophil) [µM] | IC50 (RAW264.7 [2]) [µM] | inhibition (RAW264.7 [3])
COC(=O)C[C@H]1C(C)(C)[C@H](OC(C)=O)[C@]2(O)CC3=C4CC(=O)O[C@@H](c5ccoc5)[C@]4(C)CC[C@@H]3[C@@]1(C)C2=O [2-HYDROXYFISSINOLIDE] | Dose-dependent effect | 52.1 | > 27 | – | –
CC1(C)C(=O)C=C[C@]2(C)[C@H]3CC[C@@]4(C)[C@H](c5ccoc5)OC(=O)[C@H]5O[C@]54[C@]3(C)C(=O)C[C@@H]12 [DEACETOXY-7-OXOGEDUNIN] | Dose-dependent effect | 22.8 | – | 16.7 | –
CC1(C)C(=O)C=C[C@]2(C)[C@H]3CC[C@@]4(C)[C@H](c5ccoc5)OC(=O)[C@H]5O[C@]54[C@]3(C)[C@H](O)C[C@@H]12 [DEACETYLGEDUNIN] | Dose-dependent effect | < 10 | – | 37.6 | –
COC(=O)C[C@H]1C(C)(C)C(=O)[C@@H]2CC3=C4CC(=O)O[C@@H](c5ccoc5)[C@]4(C)CC[C@@H]3[C@@]1(C)C2=O [MEXICANOLIDE] | – | – | > 27 | – | inactive
COC(=O)C[C@H]1[C@]2(C)C[C@]3(O)[C@@](O)(C(=O)C4=C(CC[C@]5(C)C4=CC(=O)O[C@H]5c4ccoc4)[C@]13C)[C@H]2OC(C)=O [MOLUCCENSIN H] | – | – | > 27 | – | inactive
COC(=O)C[C@H]1[C@]2(C)C[C@@]3(O)[C@]1(C)[C@H]1CC[C@]4(C)C(=C1C(=O)[C@@]3(OC)[C@H]2OC(C)=O)CC(=O)O[C@H]4c1ccoc1 [MOLUCCENSIN I] | – | – | > 27 | – | inactive
COC(=O)C[C@H]1C(C)(C)[C@H](O)[C@@H]2CC3=C4CC(=O)O[C@@H](c5ccoc5)[C@]4(C)CC[C@@H]3[C@@]1(C)C2=O [PROCERANOLIDE] | Dose-dependent effect | 50.7 | > 27 | – | –
COC(=O)C[C@@H]1C(C)(C)C(=O)C=C[C@@]1(C)[C@H]1CC[C@@]2(C)[C@H](c3ccoc3)OC(=O)C[C@]2(O)[C@]1(C)O [THAIMOLUCCENSIN A] | Dose-dependent effect | 45.8 | – | – | –
COC(=O)C[C@H]1[C@]2(C)CO[C@@]3(O)[C@]1(C)[C@H]1CC[C@]4(C)[C@@H](CC(=O)O[C@H]4c4ccoc4)C1=C[C@@]3(O)[C@H]2OC(C)=O [THAIMOLUCCENSIN B] | – | – | > 27 | – | –
COC(=O)C[C@H]1[C@]2(C)C[C@@]3(OC(=O)C(C)C)[C@]1(C)[C@H]1CC[C@]4(C)C(=C1C(=O)[C@@]3(O)[C@H]2OC(C)=O)CC(=O)O[C@H]4c1ccoc1 [THAIMOLUCCENSIN C] | Dose-dependent effect | 32.3 | > 27 | – | –
